In patent US20110091531A1, “Cooling Composition” (GIV AUDAN SA, priority 2008, published 2011):

Assay: Solubility of Evercool 180 alone in solvent under regular conditions
Type: physicochemical

CC(C)[C@@H]1CC[C@@H](C)C[C@H]1C(=O)Nc1ccc(CC#N)cc1 [Evercool™ 180, (1R,2S,5R)—N-(4-(cyanomethyl)phenyl)-2-isopropyl-5-methylcyclohexane-carboxamide]
Soluble in menthol (at 65° C. under regular conditions): 17% | Soluble in peppermint oil (at room temperature under regular conditions): 12% | Solubility in Orange oil (1× Brazilian) (under regular conditions): > 1%
